Read-outs that look alike come from different tables or passages of the source.
Legend:
Assay in all cases: Kinase panel study
Format in all cases: biochemical
[1] = biological target: T1, PRKCN (PKD3) (Homo sapiens, UniProt O94806)
T1 construct: purchased Thermo Fisher Scientific
T1 sequence (O94806 1-890): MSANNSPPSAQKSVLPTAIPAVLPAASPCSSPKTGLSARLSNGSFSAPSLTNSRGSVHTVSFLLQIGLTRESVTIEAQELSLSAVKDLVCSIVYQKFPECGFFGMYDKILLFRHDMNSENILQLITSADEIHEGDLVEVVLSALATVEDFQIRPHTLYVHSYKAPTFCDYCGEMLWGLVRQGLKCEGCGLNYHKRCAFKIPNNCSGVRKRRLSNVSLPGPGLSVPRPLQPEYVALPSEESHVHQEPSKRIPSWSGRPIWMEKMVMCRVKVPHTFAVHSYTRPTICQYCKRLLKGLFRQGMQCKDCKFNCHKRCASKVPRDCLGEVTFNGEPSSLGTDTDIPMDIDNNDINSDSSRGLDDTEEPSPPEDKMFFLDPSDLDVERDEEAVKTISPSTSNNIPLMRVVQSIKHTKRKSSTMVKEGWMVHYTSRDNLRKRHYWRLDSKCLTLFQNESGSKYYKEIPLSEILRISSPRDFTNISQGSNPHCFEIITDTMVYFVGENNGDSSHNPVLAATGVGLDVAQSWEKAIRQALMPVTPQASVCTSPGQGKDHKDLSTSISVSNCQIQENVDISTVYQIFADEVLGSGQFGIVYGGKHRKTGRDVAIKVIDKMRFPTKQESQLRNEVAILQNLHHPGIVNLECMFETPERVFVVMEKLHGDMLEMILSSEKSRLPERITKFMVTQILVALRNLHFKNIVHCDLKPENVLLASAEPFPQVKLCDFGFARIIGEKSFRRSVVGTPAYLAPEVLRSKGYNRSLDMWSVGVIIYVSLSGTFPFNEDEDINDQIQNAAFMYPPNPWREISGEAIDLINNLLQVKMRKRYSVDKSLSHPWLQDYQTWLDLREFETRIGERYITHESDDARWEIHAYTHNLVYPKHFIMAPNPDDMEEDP
Procedure, shortened: (§1)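 Percent inhibition of each kinase by the test compound, given at either 1 µM or 10 µM, came from a contracted panel run by ZLyte or Adapta protocol.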

[2] = biological target: T2, PIK3CA/PIK3R1 (p11 0 alpha/p85 alpha) (Homo sapiens, UniProt P42336)
T2 construct: purchased Thermo Fisher Scientific
Procedure, shortened: as §1

[3] = biological target: T3, BTK (Homo sapiens, UniProt Q06187)
T3 construct: purchased Thermo Fisher Scientific
Procedure, shortened: as §1

[4] = biological target: T4, PIP5K1B (Homo sapiens, UniProt O14986)
T4 construct: purchased Thermo Fisher Scientific
Procedure, shortened: as §1

[5] = biological target: T5, PI4K2B (PI4K2 beta) (Homo sapiens, UniProt Q8TCG2)
T5 construct: purchased Thermo Fisher Scientific
Procedure, shortened: as §1

[6] = biological target: T6, ALK (Homo sapiens, UniProt Q9UM73)
T6 construct: purchased Thermo Fisher Scientific
Procedure, shortened: as §1

[7] = biological target: T7, PI4K2A (PI4K2 alpha) (Homo sapiens, UniProt Q9BTU6)
T7 construct: purchased Thermo Fisher Scientific
Procedure, shortened: as §1

[8] = biological target: T8, MINK1 (Homo sapiens, UniProt Q8N4C8)
T8 construct: purchased Thermo Fisher Scientific
Procedure, shortened: as §1

[9] = biological target: T9, PI4KB (PI4K beta) (Homo sapiens, UniProt Q9UBF8)
T9 construct: purchased Thermo Fisher Scientific
Procedure, shortened: as §1

[10] = biological target: T10, AKT2 (PKB beta) (Homo sapiens, UniProt P31751)
T10 construct: purchased Thermo Fisher Scientific
Procedure, shortened: as §1

[11] = biological target: T11, FRAP1 (mTOR) (Homo sapiens, UniProt P42345)
T11 construct: purchased Thermo Fisher Scientific
Procedure, shortened: (§2)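 Readout is percentage kinase inhibition. Testing used 1 µM or 10 µM compound in externally run ZLyte/Adapta in vitro assays, and IC50 values were derived within the same panel.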

[12] = biological target: T12, DNA-PK (Homo sapiens, UniProt P78527)
T12 construct: purchased Thermo Fisher Scientific
Procedure, shortened: as §2

[13] = biological target: T13, PIP5K1A (Homo sapiens, UniProt Q99755)
T13 construct: purchased Thermo Fisher Scientific
Procedure, shortened: as §1

[14] = biological target: T14, EGFR (ErbB1) (Homo sapiens, UniProt P00533)
T14 construct: purchased Thermo Fisher Scientific
Procedure, shortened: as §1

[15] = biological target: T15, DYRK1B (Homo sapiens, UniProt Q9Y463)
T15 construct: purchased Thermo Fisher Scientific
Procedure, shortened: as §1

[16] = biological target: T16, IRAK1 (Homo sapiens, UniProt P51617)
T16 construct: purchased Thermo Fisher Scientific
Procedure, shortened: as §1

[17] = 1000nM, read-out: Percentage of inhibition
[18] = 10000nM, read-out: Percentage of inhibition
[19] = PRKCN (PKD3), compound at 10µM, read-out: % of Inhibition
[20] = PIK3CA/PIK3R1, compound at 10µM, read-out: % of Inhibition
[21] = BTK, compound at 10µM, read-out: % of Inhibition
[22] = PIP5K1B, compound at 10µM, read-out: % of Inhibition
[23] = PI4K2B (PI4K2 beta), compound at 10µM, read-out: % of Inhibition
[24] = ALK, compound at 10µM, read-out: % of Inhibition
[25] = PI4K2A (PI4K2 alpha), compound at 10µM, read-out: % of Inhibition
[26] = MINK1, compound at 10µM, read-out: % of Inhibition
[27] = PI4KB (PI4K beta), compound at 10µM, read-out: % of Inhibition
[28] = AKT2 (PKB beta), compound at 10µM, read-out: % of Inhibition
[29] = FRAP1 (mTOR), compound at 10µM, read-out: % of Inhibition
[30] = DNA-PK, compound at 10µM, read-out: % of Inhibition
[31] = PIP5K1A, compound at 10µM, read-out: % of Inhibition
[32] = EGFR (ErbB1), compound at 10µM, read-out: % of Inhibition
[33] = DYRK1B, compound at 10µM, read-out: % of Inhibition
[34] = IRAK1, compound at 10µM, read-out: % of Inhibition

T4 sequence (O14986 whole entry): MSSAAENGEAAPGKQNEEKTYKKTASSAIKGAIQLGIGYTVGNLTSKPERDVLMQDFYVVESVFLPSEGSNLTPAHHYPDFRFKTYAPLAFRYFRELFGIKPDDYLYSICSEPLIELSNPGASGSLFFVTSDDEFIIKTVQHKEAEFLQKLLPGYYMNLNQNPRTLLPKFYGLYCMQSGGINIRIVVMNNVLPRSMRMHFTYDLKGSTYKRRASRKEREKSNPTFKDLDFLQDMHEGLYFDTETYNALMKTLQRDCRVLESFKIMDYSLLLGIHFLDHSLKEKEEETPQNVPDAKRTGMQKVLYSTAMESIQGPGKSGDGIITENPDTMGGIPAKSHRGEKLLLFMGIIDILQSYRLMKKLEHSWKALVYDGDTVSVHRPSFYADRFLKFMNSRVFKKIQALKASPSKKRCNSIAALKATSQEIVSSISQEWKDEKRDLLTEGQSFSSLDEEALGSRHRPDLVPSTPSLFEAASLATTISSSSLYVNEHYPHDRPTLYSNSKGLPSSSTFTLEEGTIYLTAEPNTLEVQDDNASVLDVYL
T5 sequence (Q8TCG2 whole entry): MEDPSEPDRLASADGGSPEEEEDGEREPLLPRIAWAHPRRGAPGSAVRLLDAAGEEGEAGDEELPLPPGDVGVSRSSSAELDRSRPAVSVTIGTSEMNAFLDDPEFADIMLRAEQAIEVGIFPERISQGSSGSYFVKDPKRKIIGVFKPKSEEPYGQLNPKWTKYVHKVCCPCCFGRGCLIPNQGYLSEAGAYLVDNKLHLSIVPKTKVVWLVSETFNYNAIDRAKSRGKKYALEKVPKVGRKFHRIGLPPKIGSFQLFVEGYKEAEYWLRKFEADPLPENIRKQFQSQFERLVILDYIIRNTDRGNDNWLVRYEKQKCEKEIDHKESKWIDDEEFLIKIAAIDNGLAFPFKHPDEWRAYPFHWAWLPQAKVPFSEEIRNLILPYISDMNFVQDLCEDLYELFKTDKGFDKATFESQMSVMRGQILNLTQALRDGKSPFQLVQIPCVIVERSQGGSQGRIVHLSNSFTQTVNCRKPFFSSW
T2 sequence (P42336 whole entry): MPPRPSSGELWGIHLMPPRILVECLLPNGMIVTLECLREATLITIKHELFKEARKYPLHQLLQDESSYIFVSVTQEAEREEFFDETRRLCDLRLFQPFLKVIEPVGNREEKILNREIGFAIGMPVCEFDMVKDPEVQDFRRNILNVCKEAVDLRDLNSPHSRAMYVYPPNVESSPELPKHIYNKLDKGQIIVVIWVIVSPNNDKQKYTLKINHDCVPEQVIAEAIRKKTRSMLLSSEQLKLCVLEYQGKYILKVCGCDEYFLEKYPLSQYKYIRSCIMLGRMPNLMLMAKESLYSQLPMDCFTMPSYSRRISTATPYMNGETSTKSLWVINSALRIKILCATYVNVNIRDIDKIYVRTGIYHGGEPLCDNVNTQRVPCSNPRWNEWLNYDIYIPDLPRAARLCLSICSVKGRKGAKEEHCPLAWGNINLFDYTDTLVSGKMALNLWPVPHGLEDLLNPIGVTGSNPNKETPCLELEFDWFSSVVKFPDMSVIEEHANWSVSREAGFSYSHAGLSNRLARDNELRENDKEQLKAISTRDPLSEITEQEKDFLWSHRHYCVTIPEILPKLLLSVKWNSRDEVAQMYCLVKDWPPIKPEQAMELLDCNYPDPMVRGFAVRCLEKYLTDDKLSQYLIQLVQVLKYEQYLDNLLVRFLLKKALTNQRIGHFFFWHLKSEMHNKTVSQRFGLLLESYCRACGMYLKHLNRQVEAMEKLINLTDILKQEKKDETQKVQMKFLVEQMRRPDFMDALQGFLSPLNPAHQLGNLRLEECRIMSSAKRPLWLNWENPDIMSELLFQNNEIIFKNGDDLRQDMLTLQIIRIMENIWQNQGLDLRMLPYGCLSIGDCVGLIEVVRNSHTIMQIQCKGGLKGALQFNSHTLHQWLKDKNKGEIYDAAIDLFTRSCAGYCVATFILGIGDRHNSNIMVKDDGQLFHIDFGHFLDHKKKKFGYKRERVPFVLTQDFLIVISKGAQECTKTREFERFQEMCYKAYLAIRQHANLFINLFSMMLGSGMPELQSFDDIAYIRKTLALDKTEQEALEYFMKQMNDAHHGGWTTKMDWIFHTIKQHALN
T2 sequence (P27986 whole entry partner): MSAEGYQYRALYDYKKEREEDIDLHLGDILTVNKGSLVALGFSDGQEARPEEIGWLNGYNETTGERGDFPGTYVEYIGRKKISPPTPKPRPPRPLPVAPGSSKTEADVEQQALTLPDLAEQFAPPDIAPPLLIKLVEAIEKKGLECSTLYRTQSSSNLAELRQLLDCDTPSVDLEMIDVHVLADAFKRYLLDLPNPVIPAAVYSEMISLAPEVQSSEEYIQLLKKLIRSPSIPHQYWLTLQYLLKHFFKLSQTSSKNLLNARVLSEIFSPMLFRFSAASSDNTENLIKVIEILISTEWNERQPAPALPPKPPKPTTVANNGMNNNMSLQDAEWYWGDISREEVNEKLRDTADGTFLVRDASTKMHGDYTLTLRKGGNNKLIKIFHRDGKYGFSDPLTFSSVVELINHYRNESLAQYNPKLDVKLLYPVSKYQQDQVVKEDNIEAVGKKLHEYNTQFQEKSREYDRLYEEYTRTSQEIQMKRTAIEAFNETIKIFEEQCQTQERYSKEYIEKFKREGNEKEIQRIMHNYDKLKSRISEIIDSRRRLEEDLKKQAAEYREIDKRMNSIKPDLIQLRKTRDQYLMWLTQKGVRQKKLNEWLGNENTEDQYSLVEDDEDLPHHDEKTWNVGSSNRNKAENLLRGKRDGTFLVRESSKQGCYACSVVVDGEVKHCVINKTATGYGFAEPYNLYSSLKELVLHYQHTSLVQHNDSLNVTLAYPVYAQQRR
T8 sequence (Q8N4C8 whole entry): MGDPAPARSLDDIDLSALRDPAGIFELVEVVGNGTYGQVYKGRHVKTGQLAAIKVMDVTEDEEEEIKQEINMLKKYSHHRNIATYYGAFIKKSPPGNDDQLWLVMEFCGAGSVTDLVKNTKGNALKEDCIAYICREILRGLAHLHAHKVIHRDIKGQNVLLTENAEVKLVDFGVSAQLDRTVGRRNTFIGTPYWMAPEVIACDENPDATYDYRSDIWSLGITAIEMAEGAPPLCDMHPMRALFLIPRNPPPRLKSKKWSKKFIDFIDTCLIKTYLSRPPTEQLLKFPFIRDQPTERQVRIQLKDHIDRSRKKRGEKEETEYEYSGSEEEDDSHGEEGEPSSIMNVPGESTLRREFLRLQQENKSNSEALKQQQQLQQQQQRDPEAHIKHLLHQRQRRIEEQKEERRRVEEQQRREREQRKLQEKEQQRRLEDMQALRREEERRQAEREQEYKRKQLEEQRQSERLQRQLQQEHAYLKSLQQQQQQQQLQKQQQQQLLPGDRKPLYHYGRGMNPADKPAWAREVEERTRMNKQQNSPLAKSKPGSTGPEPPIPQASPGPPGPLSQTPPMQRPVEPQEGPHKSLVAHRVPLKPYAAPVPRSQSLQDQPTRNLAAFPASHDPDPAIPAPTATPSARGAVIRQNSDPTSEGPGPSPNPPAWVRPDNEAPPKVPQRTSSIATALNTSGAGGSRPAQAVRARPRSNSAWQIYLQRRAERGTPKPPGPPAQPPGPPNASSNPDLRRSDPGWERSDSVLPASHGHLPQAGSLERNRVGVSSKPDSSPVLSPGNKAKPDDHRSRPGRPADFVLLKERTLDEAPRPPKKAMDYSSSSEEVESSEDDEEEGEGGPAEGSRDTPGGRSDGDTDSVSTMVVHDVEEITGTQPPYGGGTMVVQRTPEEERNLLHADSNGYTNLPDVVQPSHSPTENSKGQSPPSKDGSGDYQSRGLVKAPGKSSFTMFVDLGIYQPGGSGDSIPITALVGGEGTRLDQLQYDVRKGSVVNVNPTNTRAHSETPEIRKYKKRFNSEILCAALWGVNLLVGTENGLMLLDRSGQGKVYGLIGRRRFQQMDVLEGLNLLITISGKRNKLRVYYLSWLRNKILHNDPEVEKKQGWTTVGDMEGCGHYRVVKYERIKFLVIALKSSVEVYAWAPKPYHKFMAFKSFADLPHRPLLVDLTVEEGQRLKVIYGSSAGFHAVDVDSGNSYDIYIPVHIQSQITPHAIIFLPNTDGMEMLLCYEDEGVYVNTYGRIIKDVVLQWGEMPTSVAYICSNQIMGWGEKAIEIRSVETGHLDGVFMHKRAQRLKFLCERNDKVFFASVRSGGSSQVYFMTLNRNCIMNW
T10 sequence (P31751 whole entry): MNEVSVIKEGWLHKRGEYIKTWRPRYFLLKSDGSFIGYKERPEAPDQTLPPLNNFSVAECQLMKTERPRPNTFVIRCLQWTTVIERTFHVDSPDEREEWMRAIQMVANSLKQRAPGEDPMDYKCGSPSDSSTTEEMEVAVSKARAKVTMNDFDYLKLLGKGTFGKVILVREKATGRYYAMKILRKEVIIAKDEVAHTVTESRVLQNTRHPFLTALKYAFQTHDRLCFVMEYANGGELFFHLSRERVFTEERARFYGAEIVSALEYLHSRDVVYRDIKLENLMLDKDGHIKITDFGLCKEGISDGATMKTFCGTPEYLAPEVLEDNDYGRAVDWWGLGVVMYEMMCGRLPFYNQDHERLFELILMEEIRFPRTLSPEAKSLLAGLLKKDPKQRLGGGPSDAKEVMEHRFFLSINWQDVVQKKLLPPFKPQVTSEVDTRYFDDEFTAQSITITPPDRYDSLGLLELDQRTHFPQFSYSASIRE

COc1ccc2c(c1OC)c(=O)n1c3ccc(O)cc3c3ccnc2c31 [MW01, 5-Hydroxy-10,11-dimethoxy-9H-benzo[c]indolo[3,2,1-ij][1,5]naphthyridin-9-one]
inhibition at 1 µM [1, 17]: 34%
inhibition at 10 µM [1, 18]: 57%
inhibition at 1 µM [2, 17]: 81%
inhibition at 10 µM [2, 18]: 86%
inhibition at 1 µM [3, 17]: 11%
inhibition at 10 µM [3, 18]: 23%
inhibition at 1 µM [4, 17]: 4%
inhibition at 10 µM [4, 18]: 21%
inhibition at 1 µM [5, 17]: 3%
inhibition at 10 µM [5, 18]: 20%
inhibition at 1 µM [6, 17]: 18%
inhibition at 10 µM [6, 18]: 40%
inhibition at 1 µM [7, 17]: 7%
inhibition at 10 µM [7, 18]: 25%
inhibition at 1 µM [8, 17]: 60%
inhibition at 10 µM [8, 18]: 73%
inhibition at 1 µM [9, 17]: 94%
inhibition at 10 µM [9, 18]: 100%
inhibition at 1 µM [10, 17]: 1%
inhibition at 10 µM [10, 18]: 9%
inhibition at 1 µM [11, 17]: 31%
inhibition at 10 µM [11, 18]: 80%
IC50 ([11]; in vitro kinase panel, sub-2000 nM criterion): ≥ 2 µM
inhibition at 1 µM [12, 17]: 86%
inhibition at 10 µM [12, 18]: 96%
inhibition at 1 µM [13, 17]: 25%
inhibition at 10 µM [13, 18]: 43%
inhibition at 1 µM [14, 17]: 17%
inhibition at 10 µM [14, 18]: 0%
inhibition at 1 µM [15, 17]: 62%
inhibition at 10 µM [15, 18]: 82%
inhibition at 1 µM [16, 17]: 57%
inhibition at 10 µM [16, 18]: 67%

COc1ccc2c(c1)c1ccnc3c4nc(OC)ccc4c(=O)n2c13 [MW01-E6, 5,15-dimethoxy-1,11,14-triazapentacyclo[10.7.1,0^2,7.0^8,^20.0^13,^18]icosa-2(7),3,5,8(20),9,11,13(18),14,16-nonaen-19-one]
inhibition at 10 µM [1, 19]: -8%
inhibition at 10 µM [2, 20]: 38%
inhibition at 10 µM [3, 21]: 30%
inhibition at 10 µM [4, 22]: 14%
inhibition at 10 µM [5, 23]: 11%
inhibition at 10 µM [6, 24]: 19%
inhibition at 10 µM [7, 25]: 22%
inhibition at 10 µM [8, 26]: 57%
inhibition at 10 µM [9, 27]: 12%
inhibition at 10 µM [10, 28]: 4%
inhibition at 10 µM [11, 29]: 12%
inhibition at 10 µM [12, 30]: 9%
inhibition at 10 µM [13, 31]: 20%
inhibition at 10 µM [14, 32]: 11%
inhibition at 10 µM [15, 33]: 20%
inhibition at 10 µM [16, 34]: 56%

O=c1c2cc(O)ccc2c2nccc3c4cc(O)ccc4n1c32 [MW01-E10, 5,16-dihydroxy-1,11-diazapentacyclo[10.7.1.0^2,^7.0^8,^20.0^13,^18]icosa-2(7),3,5,8(20),9,11,13(18),14,16-nonaen-19-one]
inhibition at 10 µM [1, 19]: 74%
inhibition at 10 µM [2, 20]: 90%
inhibition at 10 µM [3, 21]: 69%
inhibition at 10 µM [4, 22]: 5%
inhibition at 10 µM [5, 23]: 22%
inhibition at 10 µM [6, 24]: 75%
inhibition at 10 µM [7, 25]: 13%
inhibition at 10 µM [8, 26]: 92%
inhibition at 10 µM [9, 27]: 90%
inhibition at 10 µM [10, 28]: 18%
inhibition at 10 µM [11, 29]: 42%
inhibition at 10 µM [12, 30]: 62%
inhibition at 10 µM [13, 31]: 5%
inhibition at 10 µM [14, 32]: 15%
inhibition at 10 µM [15, 33]: 81%
inhibition at 10 µM [16, 34]: 71%

Source: patent publication EP4467141A1, “PYRAZOLO-QUINOLINES AS SELECTIVE INHIBITORS OF GENOTOXIC STRESS-INDUCED IKK/NF- KB PATHWAYS FOR CANCER THERAPY” (Max-Delbrück-Centrum für Molekulare Medizin in der …, priority 2023, dated 2024)
